Assay results reported in US10450317B2, “Notch pathway signaling inhibitor compounds” (Eli Lilly and Company, priority 2015, dated 2019).

Experiments:
HEK293ΔE12 cells = assay: Relative cytotoxicity profiling (% cell number) in the N1ICD imaging assay; format: cell-based, human; conditions: up to 1000 nM concentration, 24 hours treatment
Method: HEK293ΔE12 cells (HEK293 cells are engineered to stably express mouse Notch1 cDNA coding for amino acid 1703-2183, Np_932740.3, (Full length mouse Notch 1 protein precursor: SEQ ID NO:1) with 23 amino acid signal peptide sequence, […] (SEQ ID NO:2), at its N-terminus) are plated at 5000 cells/well in 96 well plates, incubated in Dulbecco's Modified. Eagle's Medium (DMEM)-high glucose with 5% fetal bovine serum (FBS) at 37° C., 5% CO2 for 24 hours. Cells are treated with test compound, dosing at 10 points of 1:3 dilutions across the range of 1000 nM to 0.05 nM, and with final dimethyl sulfoxide (DMSO) concentration at 0.2%. […] Plates are scanned with ACUMEN EXPLORER™ Laser-scanning fluorescence microplate cytometer (TTP LABTECH LTD) to measure total cell nuclear count/well and total nuclear area/well with fluorescence at 655 nm-705 nm (emission of DNA bound propidium iodide) and fluorescence of antibody binding to N1ICD in nuclear region at 505 nm-530 nm. The main assay output is a ratio of total fluorescence of nuclear N1ICD to total nuclear area, the normalized nuclear N1ICD signal. […] Concentration response and the IC50 are determined by curve fitting to a four parameter logistic for the nuclear N1ICD signal, while the % cell number is plotted in the same graph for cytotoxicity profiling.

[1] = system: outer hair cells in organ of Corti explants; assay: Organ of Corti explant assay, immuno-staining and count of outer hair cells; format: cell-based, mice; conditions: explants cultured four days at 1 μM; relative to negative control-treated samples
Method: (§1) The bulla and surrounding tissue from the petrous portion of the temporal bone are removed from 1 to 4 day-old postnatal mice (transgenic strain: Atoh1-driven nGFP; Lumpkin E A, et al., Gene Expr Patterns, 2003, (36):389-95) of both sexes. Organs of Corti are dissected in Hanks solution, the spiral ligament is removed and the explants are placed on cover slips coated with poly-L-ornithine (0.01%, Sigma) and laminin ([…], Becton Dickinson) to obtain a preparation with a flat cochlear surface. Each cochlear explant is then placed in a single well of a 24 well plate (Falcon) and cultured in DMEM (Invitrogen) with 5% fetal bovine serum, 5% horse serum, and penicillin-streptomycin (LifeTechnologies). Experimental compounds are added with medium on Day 0 and replaced every 2-3 days. All cultures are maintained in a 5% CO2 humidified incubator at 37° C.
Following the explant culture, tissues are fixed in the 24 well plate with 200 μl Cytofix/Cytoperm (BD) for 30 min, rinsed with PBS containing TritonX100 (PBST), and stained with 200 μl of primary antibody solution, consisting of 4% normal donkey serum in PBST with goat anti-GFP (1:2500; AbCAM, ab5450) and rabbit anti-myosinVIIa (1:1000; Proteus Bioscience #25-6790) for 1 hour. […] Blinded cell counts are measured in five separate experiments. […]

[2] = system: hair cell generation markers Atoh1, Pou4f3, Myo7a in organ of Corti explants; assay: Organ of Corti explant assay, hair cell marker gene expression by qRT-PCR; format: cell-based, mice; conditions: 1 μM, fold-induction relative to negative control, ± SEM
Method: Generally, organ of Corti organotypic explant culture is carried out on Day 0 according to the method described in Parker et al., Journal of Visualized Experiments, 2010, (36), e1685. Explant culture is carried out for 4-7 days at which point the culture is either prepared for cellular lysis for qRT-PCR, or tissue fixation for immunohistochemistry.
as §1
RNA Extraction is carried out by lysing the explant tissue with 350 μl RLT Plus buffer (Qiagen) per well, and total RNA is purified by RNeasy® Plus Mini Kit (Qiagen). cDNA synthesis is carried out with the SuperScript® III First-Strand Synthesis System (LifeTechnologies) using random hexamers. To quantify the induction of hair cell marker expression, qPCR is performed with TaqMan Gene Expression Master Mix (LifeTechnologies, 4369016) and probes to detect genes of interest (e.g. […]; Assay ID Mm00476035_s1, Pou4f3; Assay ID Mm04213795_s1 and Myo7a; Assay ID Mm01274015_m1, LifeTechnologies) and an endogenous control gene, Tbp (Assay ID Mm00446971_m1, LifeTechnologies). Relative gene expression between treatment groups is analyzed using the ΔΔCT method and replicate measurements are averaged. Experiments are carried out in triplicate, at a minimum, and reported as a grand mean.
Data (±SEM) represent the fold-induction in gene expression relative to negative control-treated samples.

Compound	effect on cell number (cytotoxicity profiling) (HEK293ΔE12 cells)	Percent Increase in hair cells [1] [%]	RQ of Atoh1 expression [2]	RQ of Myo7a expression [2]	RQ of Pou4f3 expression [2]
COc1ccc2c(c1)N1CCC(C)(C)C1=CC(=O)C2NC(=O)[C@H](C)NC(=O)CCC(F)(F)F (single isomer, unassigned) [Compound 1, Isomer 2]	Neither compound affects cell number	14.15 ± 1.9	3.72 ± 0.54	1.73 ± 0.33	2.04 ± 0.35
C[C@H](NC(=O)CCC(F)(F)F)C(=O)NC1C(=O)C=C2N(CCC2(C)C)c2ncccc21 (single isomer, unassigned) [Compound 2, Isomer 2]	Neither compound affects cell number	17.26 ± 1.2	3.10 ± 0.69	1.49 ± 0.22	1.65 ± 0.25
